Read-outs that look alike come from different tables or passages of the source.
What was measured:
[1] = target: T1, outer ubiquinone binding site of complex III (IIIQO) (Rattus norvegicus, UniProt P00159+P20788); test: High-throughput screen: ROS production from outer ubiquinone binding site of complex III (IIIQO); assay type: biochemical
T1 construct: freshly isolated muscle mitochondria were assayed; from tissue; host or cells: rat skeletal muscle mitochondria (Wistar, Harlan Laboratories)

[2] = target: T2, flavin binding site of complex I (IF) (Rattus norvegicus, UniProt Q5XIH3); test: High-throughput screen: ROS production from flavin binding site of complex I (IF); assay type: biochemical
T2 construct: freshly isolated muscle mitochondria were assayed; from tissue; host or cells: rat skeletal muscle mitochondria (Wistar, Harlan Laboratories)

[3] = tested on: mitochondrial membrane potential (ΔΨm); test: Membrane potential (ΔΨm) counterscreen with TMRM; conditions: malate, nigericin
[4] = target: T3, glycerol-3-phosphate dehydrogenase (GPDH) (Rattus norvegicus, UniProt P35571); test: High-throughput screen: ROS production from glycerol-3-phosphate dehydrogenase (GPDH); assay type: biochemical; set-up: inhibition: dose or concentration left out as unconfirmed; conditions: for inhibition / GPDH: percent change in ROS from DMSO controls
T3 construct: The activity of GPDH in intact mitochondria (0.3 mg/mL) was measured; from tissue; host or cells: rat skeletal muscle mitochondria (Wistar, Harlan Laboratories)
T3 sequence (P35571 43-727): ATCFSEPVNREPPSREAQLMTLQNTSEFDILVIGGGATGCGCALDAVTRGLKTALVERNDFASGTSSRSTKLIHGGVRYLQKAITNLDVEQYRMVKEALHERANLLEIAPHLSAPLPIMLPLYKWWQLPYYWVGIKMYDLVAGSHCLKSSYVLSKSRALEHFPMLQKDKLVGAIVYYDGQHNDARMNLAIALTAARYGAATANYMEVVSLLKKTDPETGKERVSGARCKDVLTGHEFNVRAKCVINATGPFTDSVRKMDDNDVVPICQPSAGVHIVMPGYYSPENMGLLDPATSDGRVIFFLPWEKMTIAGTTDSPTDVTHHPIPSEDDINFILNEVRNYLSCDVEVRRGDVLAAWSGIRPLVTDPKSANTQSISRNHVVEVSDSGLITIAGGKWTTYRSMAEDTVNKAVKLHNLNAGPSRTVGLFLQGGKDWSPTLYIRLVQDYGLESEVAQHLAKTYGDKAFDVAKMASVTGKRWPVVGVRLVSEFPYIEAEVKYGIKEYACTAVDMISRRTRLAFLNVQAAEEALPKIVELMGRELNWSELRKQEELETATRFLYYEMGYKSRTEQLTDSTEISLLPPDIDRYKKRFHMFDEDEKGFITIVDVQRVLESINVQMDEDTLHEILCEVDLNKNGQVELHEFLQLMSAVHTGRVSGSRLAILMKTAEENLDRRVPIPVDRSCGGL

[5] = tested on: ubiquinone binding site of complex I (IQ); test: High-throughput screen: ROS production from ubiquinone binding site of complex I (IQ), isolated skeletal muscle mitochondria; assay type: biochemical, rat; conditions: percent change in ROS from DMSO controls
[6] = target: T4, succinate dehydrogenase/complex II (SDH) (Rattus norvegicus, UniProt P21913+Q641Z9+Q6PCT8+Q920L2); test: High-throughput screen: ROS production from succinate dehydrogenase/complex II (SDH); assay type: biochemical; conditions: for inhibition at 2.5 µM / SDH: percent change in ROS from DMSO controls; for % Reduction in ROS Production (SDH): Table 5, 15 μM palmitoyl carnitine, 2.5 μM antimycin A, 2 μM myxothiazol, compounds 2.5 μM, percent change from DMSO
T4 construct: freshly isolated muscle mitochondria were assayed; from tissue; host or cells: rat skeletal muscle mitochondria (Wistar, Harlan Laboratories)

[7] = Table 7, percent change in ROS from DMSO controls, read-out: IIIQO
[8] = Table 8, percent change in ROS from DMSO controls
[9] = Table 9, percent change in ROS from DMSO controls, read-out: IIIQo
[10] = Table 3, 5 mM glutamate, 5 mM malate, 4 μM rotenone, compounds 2.5 μM, percent change from DMSO, positive control −100%, read-out: % Reduction in ROS production (IF)
[11] = Table 7, percent change in ROS from DMSO controls, read-out: IF
[12] = Table 9, percent change in ROS from DMSO controls
[13] = Table 4, 5 mM succinate, 4 μM rotenone, 2.5 μM antimycin A, compounds 2.5 μM, percent change from DMSO, read-out: % Reduction in ROS production (IIIQO)
[14] = Table 7, percent change in ROS from DMSO controls

T2 sequence (Q5XIH3 21-464 limits assumed, one chain of several): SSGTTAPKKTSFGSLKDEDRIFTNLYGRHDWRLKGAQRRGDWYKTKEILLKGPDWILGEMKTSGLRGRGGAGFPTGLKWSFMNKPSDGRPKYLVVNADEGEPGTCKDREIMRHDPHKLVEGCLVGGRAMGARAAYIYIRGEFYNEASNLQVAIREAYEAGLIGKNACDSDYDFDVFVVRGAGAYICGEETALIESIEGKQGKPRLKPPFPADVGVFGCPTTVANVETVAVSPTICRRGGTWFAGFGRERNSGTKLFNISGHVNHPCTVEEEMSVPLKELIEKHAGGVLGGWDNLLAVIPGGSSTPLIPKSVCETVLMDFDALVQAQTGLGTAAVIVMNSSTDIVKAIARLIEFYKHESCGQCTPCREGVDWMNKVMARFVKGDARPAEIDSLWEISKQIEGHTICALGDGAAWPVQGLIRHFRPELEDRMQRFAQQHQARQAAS
T4 sequence (Q920L2 35-656): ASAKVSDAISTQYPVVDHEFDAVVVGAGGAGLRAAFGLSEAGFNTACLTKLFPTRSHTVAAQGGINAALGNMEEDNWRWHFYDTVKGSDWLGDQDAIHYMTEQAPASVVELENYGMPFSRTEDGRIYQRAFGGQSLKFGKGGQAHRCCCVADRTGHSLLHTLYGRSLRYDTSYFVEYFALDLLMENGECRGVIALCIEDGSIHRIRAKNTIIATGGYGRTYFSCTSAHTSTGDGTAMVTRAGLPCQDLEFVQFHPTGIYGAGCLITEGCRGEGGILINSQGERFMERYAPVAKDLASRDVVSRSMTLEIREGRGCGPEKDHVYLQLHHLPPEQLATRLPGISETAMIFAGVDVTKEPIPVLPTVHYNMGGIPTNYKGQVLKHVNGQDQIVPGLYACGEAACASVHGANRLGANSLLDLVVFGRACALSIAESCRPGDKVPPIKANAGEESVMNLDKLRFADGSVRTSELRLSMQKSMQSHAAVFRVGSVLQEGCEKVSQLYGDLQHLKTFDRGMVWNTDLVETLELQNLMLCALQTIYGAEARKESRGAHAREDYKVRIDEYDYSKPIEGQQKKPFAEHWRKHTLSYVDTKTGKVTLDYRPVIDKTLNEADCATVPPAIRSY
T4 sequence (P21913 31-282): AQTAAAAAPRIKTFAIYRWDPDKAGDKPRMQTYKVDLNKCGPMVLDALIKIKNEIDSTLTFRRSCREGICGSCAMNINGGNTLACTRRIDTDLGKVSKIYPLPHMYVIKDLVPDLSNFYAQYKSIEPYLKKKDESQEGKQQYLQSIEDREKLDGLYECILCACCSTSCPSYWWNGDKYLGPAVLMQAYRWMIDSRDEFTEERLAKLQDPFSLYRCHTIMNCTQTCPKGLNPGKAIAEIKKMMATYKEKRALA
T4 sequence (Q641Z9 30-169 limits assumed): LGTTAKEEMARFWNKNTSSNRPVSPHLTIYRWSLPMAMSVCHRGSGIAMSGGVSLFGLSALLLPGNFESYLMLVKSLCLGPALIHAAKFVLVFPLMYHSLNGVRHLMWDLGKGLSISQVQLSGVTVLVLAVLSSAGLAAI
T4 sequence (Q6PCT8 57-159): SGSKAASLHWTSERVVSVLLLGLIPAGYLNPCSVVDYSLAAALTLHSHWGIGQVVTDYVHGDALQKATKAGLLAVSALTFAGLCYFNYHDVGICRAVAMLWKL

Structure (SMILES)	inhibition at 2.5 µM [1, 7] [%]	IIIQO [1, 8]	inhibition at 2.5 µM [1, 9] [%]	inhibition at 2.5 µM [2, 11] [%]	IF [2, 8]	IF [2, 12]	ΔΨm ([3]; Table 8, glutamate)	ΔΨm ([3]; Table 9, glutamate)	inhibition ([4]; Table 7) [%]	GPDH ([4]; Table 8)	GPDH ([4]; Table 9)	IQ ([5]; Table 7)	IQ ([5]; Table 8)	IQ ([5]; Table 9)	inhibition at 2.5 µM ([6]; Table 7) [%]	SDH ([6]; Table 8)	SDH ([6]; Table 9)	inhibition at 2.5 µM [1, 13] [%]	also measured
Cc1ccc(S(=O)(=O)Nc2nnc(C)s2)cc1 [Compound 27]	0.1	−0.1	0.1	19.6	−19.6	−19.6	1.6	1.6	0.4	−0.4	−0.4	0.0	0.0	0.0	-0.8	0.8	0.8	–	inhibition at 2.5 µM [2, 10]: 19.6%
O=C(Nc1ccc(Br)cc1)[C@@H]1C2C=CC(C2)[C@@H]1C(=O)O (some centres unmarked) [Compound 28]	2.5	−2.5	2.5	19.1	−19.1	−19.1	−1.3	−1.3	2.3	−2.3	−2.3	0.2	0.2	0.2	-1.3	1.3	1.3	–	inhibition at 2.5 µM [2, 10]: 19.1%
Cc1ccc(CCSc2ccc(F)cc2)cn1 [Compound 35]	34.9	−34.9	34.9	0.7	−0.7	−0.7	0.6	0.6	5.3	−5.3	−5.3	1.3	1.3	1.3	-0.2	0.2	0.2	34.9	–
c1cc2c3c(ccc(CSCCc4ccncc4)c3c1)CC2 [Compound 36]	33.6	−33.6	33.6	-0.6	0.6	0.6	0.0	0.0	4.9	−4.9	−4.9	3.7	3.7	3.7	1.1	−1.1	−1.1	33.6	–
Cc1cc(C)c(S(=O)(=O)N2CCCC2=O)c(C)c1 [Compound 40]	25.1	−25.1	25.1	-1.8	1.8	1.8	0.7	0.7	4.2	−4.2	−4.2	4.3	4.3	4.3	2.7	−2.7	−2.7	25.1	–
COc1ccc(-c2ccccc2)cc1NCC1=CC[C@H]2C[C@@H]1C2(C)C [Compound 41]	24.7	−24.7	24.7	-6.6	6.6	6.6	2.3	2.3	-2.6	2.6	2.6	0.2	0.2	0.2	-1.2	1.2	1.2	24.7	–
Fc1ccc(SCCc2ccccn2)cc1 [Compound 42]	24.1	−24.1	24.1	2.6	−2.6	−2.6	0.4	0.4	0.3	−0.3	−0.3	7.9	7.9	7.9	-0.7	0.7	0.7	24.1	–
O=C(O)/C=C/C(=O)Nc1ccc(/C=C/c2ccccc2)cc1 [Compound 49]	-10	10.0	-10	-1	1.0	1.0	−0.3	−0.3	12.7	−12.7	−12.7	1.7	1.7	1.7	1	−1.0	−1.0	–	inhibition at 2.5 µM ([4]; Table 6, 25 mM glycerol phosphate, rotenone, antimycin A, malonate, myxothiazol, compounds 2.5 μM, scaled to IQ positive controls, read-out: % Reduction in ROS Production (GPDH)): 12.7%
Cl.OC12CCCCC1C(c1cccc(Cl)c1)NCC2 (centres unmarked) [Compound 51]	9.8	−9.8	9.8	-5.5	5.5	5.5	0.9	0.9	12	−12.0	−12.0	−2.8	−2.8	−2.8	1.8	−1.8	−1.8	–	–
Oc1nnc(Cc2ccncc2)c2ccccc12 [Compound 72]	-5.4	5.4	-5.4	-2.6	2.6	2.6	1.0	1.0	-1.7	1.7	1.7	0.4	0.4	0.4	27.4	−27.4	−27.4	–	% Reduction in ROS Production (SDH) [6]: −27.4%
O=C(Nc1ccccc1[N+](=O)[O-])c1cccc(S(=O)(=O)Nc2ccccc2)c1 [Compound 73]	–	−1.3	–	–	−0.7	−0.7	−0.2	−0.2	–	−2.4	−2.4	−4.6	−4.6	−4.6	–	−26.9	−26.9	–	IIIQO [1, 14]: −1.3; IIIQO [1, 12]: −1.3; IF [2, 14]: −0.7; GPDH ([4]; Table 7): −2.4; % Reduction in ROS Production (SDH) [6]: −26.9%; SDH ([6]; Table 7): −26.9
COc1ccc(C2C(C#N)=C(N)Oc3c2c(=O)oc2ccccc32)cc1O (centres unmarked) [Compound 74]	7.6	−7.6	7.6	-0.4	0.4	0.4	0.8	0.8	3.5	−3.5	−3.5	−0.7	−0.7	−0.7	20.9	−20.9	−20.9	–	% Reduction in ROS Production (SDH) [6]: −20.9%
